From patent US20210145775A1, “Treatment of intestinal barrier dysfunction and associated diseases” (CymaBay Therapeutics, Inc., priority 2019, published 2021)

How the values were obtained:
[1] = test system: atherogenic diet-fed obese diabetic (Alms1 mutant (foz/foz)) mice; details: cited from earlier work
[2] = test system: wild-type female C57BL/6 mice; assay: Preclinical Lieber-DeCarli ethanol diet mouse model (alcoholic liver disease / intestinal barrier function); format: in vivo
Description: Age-matched wild-type female C57BL/6 mice (Charles River, Wilmington, Mass.), 8-9 weeks old at the initiation of the study, were used.
The Lieber-DeCarli ethanol diet was originally developed by Charles Lieber and Leonore DeCarli in 1963. This diet allows for the prolonged exposure of ethanol in a rodent model and allows for modification to calories provided by ethanol. […] The caloric intake from ethanol was 0% on day 1, 10% on days 2 and 3, 20% on days 4 and 5, 30% from day 6 until the end of 6 weeks, and 36% for the last 2 weeks, for a total in-life time of eight weeks. The ethanol-fed mice also received one bolus dose of 33% v/v ethanol at 5 g/Kg on the last in-life day. The control diet contained an isocaloric substitution of isomaltose for the ethanol. […] In the prevention portions of the study, including with the control diet, seladelpar was added throughout the entire study period; in the intervention portion of the study, seladelpar was added only for the fifth through eighth weeks. Fresh feces were collected at 7.5 weeks. All mice were sacrificed after eight weeks; the ethanol-fed mice eight hours after the ethanol bolus. At sacrifice, body and liver weight were recorded; and blood/plasma, liver, gallbladder, small and large intestine (wall and contents) and cecum were harvested. Analyses included plasma ALT—to measure […]; hepatic TGs; plasma lipopolysaccharides (LPS)—to measure the extent of bacterial leakage from the intestine into the blood; fecal albumin (FA)—to measure the extent of albumin leakage from the blood into the intestine (feces); and total bile acids, measured by liquid chromatography-mass spectrometry (LC-MS) generally according to the method described in Hartmann et al., “Modulation of the Intestinal Bile Acid/Farnesoid X Receptor/Fibroblast Growth Factor 15 Axis Improves Alcoholic Liver Disease in Mice”, Hepatology, 67(6), 2150-2166 (2018).
The study results are given in the table below: standard errors of the means are in parentheses, n denotes the number of mice measured, and ANOVA denotes the significance value of an ANOVA analysis between groups 3, 4, and 5:
Formalin-fixed liver sections were stained for histological examination with hematoxylin and eosin (H+E).

[3] = test system: Subjects with diagnosed irritable bowel syndrome (IBS); assay: Clinical (oral) treatment of irritable bowel syndrome; format: in vivo, human
Protocol: The subjects keep a health diary in which their symptoms of irritable bowel syndrome are recorded.

[4] = biological target: T1, PPARα (Homo sapiens, UniProt Q07869); details: cited from earlier work
T1 sequence (Q07869 1-468): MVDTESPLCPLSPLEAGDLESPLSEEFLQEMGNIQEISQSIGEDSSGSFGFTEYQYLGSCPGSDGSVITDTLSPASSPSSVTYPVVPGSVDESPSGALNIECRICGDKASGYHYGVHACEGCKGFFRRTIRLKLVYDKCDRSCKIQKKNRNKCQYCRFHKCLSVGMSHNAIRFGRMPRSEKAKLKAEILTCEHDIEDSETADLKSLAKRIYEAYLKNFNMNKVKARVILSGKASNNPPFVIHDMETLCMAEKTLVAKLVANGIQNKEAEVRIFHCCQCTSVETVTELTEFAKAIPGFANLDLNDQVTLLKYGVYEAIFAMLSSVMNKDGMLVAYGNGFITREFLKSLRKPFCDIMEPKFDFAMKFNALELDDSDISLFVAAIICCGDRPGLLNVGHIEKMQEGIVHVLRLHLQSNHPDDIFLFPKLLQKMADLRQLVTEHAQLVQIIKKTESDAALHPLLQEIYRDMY

[5] = test system: male RAG2−/− mice on C57BL/6 background; assay: Preclinical adoptive T-cell transfer colitis; format: in vivo; details: 10 mg/Kg/day in drinking water, day 14 to day 42
Description: The cell donor animals are male C57BL/6 mice and the recipient animals are male RAG2^−/− mice on C57BL/6 background, aged 6-8 weeks at the start of the study. Recipient animals (20 +12 per test compound) are assigned: 5 to form a control group receiving no cell transfer or treatment, and the remainder to receive cell transfer. At day 0, the donor animals are sacrificed and spleens excised, dissociated to a single cell suspension, and the red blood cells lysed. The cell suspension is enriched for CD4+ T cells using a Miltenyi CD4+ T cell isolation kit, then further enriched for naïve CD4+ T cells using a Miltenyi naïve CD4+ T cell isolation kit. […] The animals are weighed daily and assessed visually for presence and severity of diarrhea and bloody stools, with video endoscopy on days 14, 28, and 42 to assess the severity of the colitis and score stool consistency. All animals are sacrificed at day 42 following endoscopy and samples collected: blood is collected and processed for plasma, the colon is excised, measured, rinsed, weighed, and trimmed to the most distal 5 cm, of this distal and proximal 2 cm portions are placed in formalin for histological evaluation, while the central 1 cm is snap-frozen in liquid nitrogen, and stored for analysis; and the liver is excised, weighed, snap-frozen in liquid nitrogen, and stored for analysis.

[6] = alcohol diet, groups 4 and 5 vs untreated group 3, ANOVA

CCO[C@H](COc1ccc(C(F)(F)F)cc1)CSc1ccc(OCC(=O)O)c(C)c1 [seladelpar]
NASH pathology (hepatic steatosis, inflammation, fibrosis) [1]: improves NASH pathology
liver histology (H+E) ([2]; alcohol diet, prevention and intervention, comparing group 3 with groups 4 and 5): significant reduction of steatosis and restoration of a more normal architecture
serum ALT, change versus untreated ([2]; alcohol diet, groups 4 and 5 (prevention and intervention) vs untreated group 3, ANOVA): significant reductions (improvements)
fecal albumin, change versus untreated [2, 6]: significant reduction (improvement)
hepatic TGs, change versus untreated [2, 6]: significant reductions (improvements)
serum LPS, change versus untreated [2, 6]: significant reductions (improvements)
total bile acids, change versus untreated [2, 6]: significant reductions (improvements)
effect on ALT, hepatic TGs, plasma LPS, FA and total bile acids (any of the above parameters) ([2]; control diet groups, seladelpar prevention (group 2 vs group 1)): did not significantly affect
liver histology (H+E) ([2]; control diet, comparing groups 1 and 2): no significant change
IBS symptoms recorded in health diary ([3]; 2, 5, 10, 20, 50 or 100 mg/day oral for 12 weeks): general improvement in their IBS symptoms
improvement of disease (management of IBS, gastrointestinal symptoms) ([3]; 2-100 mg/day oral for 12 weeks): dose-related improvement in their disease
specificity for PPARδ compared with PPARα [4]: > 600 fold
colitis (body weight, endoscopic and histologic examination) [5]: ameliorates the colitis
